Molecules are shown by their SMILES. Where only a bound is given, the exact number is not on record here.

IC50 data for 2 compounds are collected here from ChEMBL document CHEMBL5120882, “Medicinal Chemistry Perspective on Targeting Mono-ADP-Ribosylating PARPs with Small Molecules” (J Med Chem, 2022).

Experiment [1] deals with Poly [ADP-ribose] polymerase 2 (Homo sapiens, UniProt Q9UGN5). Description: Inhibition of N-terminal his-tagged human PARP2 expressed in Escherichia coli Rosette2 (DE3).
Poly [ADP-ribose] polymerase 2, sequence (Q9UGN5 whole entry): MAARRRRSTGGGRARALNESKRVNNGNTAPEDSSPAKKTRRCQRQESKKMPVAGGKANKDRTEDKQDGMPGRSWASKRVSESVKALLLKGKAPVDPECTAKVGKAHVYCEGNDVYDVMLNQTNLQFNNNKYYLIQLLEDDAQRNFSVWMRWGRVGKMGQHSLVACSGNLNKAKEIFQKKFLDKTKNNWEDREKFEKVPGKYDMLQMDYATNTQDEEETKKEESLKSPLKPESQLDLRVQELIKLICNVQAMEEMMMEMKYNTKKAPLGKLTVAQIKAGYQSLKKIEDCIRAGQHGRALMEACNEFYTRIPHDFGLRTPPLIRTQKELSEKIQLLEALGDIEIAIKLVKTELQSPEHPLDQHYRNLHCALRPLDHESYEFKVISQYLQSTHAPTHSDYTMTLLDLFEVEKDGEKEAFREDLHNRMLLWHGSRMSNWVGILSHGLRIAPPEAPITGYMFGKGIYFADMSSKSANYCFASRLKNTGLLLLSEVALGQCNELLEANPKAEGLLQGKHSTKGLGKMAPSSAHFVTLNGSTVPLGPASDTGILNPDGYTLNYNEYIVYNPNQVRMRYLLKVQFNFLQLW
Experiment [2] concerns HeLa. Description: Cytoprotective activity against human HeLa cells assessed as rescue of PARP10-induced cell death by measuring number of colonies treated for 8 to 10 days followed by compound replenishment for every 3 days by methylene blue staining based assay. In kind it is functional.
The target of experiment [3] is T1, Poly [ADP-ribose] polymerase tankyrase-2 (Homo sapiens, UniProt Q9H2K2).
T1 sequence (Q9H2K2 whole entry): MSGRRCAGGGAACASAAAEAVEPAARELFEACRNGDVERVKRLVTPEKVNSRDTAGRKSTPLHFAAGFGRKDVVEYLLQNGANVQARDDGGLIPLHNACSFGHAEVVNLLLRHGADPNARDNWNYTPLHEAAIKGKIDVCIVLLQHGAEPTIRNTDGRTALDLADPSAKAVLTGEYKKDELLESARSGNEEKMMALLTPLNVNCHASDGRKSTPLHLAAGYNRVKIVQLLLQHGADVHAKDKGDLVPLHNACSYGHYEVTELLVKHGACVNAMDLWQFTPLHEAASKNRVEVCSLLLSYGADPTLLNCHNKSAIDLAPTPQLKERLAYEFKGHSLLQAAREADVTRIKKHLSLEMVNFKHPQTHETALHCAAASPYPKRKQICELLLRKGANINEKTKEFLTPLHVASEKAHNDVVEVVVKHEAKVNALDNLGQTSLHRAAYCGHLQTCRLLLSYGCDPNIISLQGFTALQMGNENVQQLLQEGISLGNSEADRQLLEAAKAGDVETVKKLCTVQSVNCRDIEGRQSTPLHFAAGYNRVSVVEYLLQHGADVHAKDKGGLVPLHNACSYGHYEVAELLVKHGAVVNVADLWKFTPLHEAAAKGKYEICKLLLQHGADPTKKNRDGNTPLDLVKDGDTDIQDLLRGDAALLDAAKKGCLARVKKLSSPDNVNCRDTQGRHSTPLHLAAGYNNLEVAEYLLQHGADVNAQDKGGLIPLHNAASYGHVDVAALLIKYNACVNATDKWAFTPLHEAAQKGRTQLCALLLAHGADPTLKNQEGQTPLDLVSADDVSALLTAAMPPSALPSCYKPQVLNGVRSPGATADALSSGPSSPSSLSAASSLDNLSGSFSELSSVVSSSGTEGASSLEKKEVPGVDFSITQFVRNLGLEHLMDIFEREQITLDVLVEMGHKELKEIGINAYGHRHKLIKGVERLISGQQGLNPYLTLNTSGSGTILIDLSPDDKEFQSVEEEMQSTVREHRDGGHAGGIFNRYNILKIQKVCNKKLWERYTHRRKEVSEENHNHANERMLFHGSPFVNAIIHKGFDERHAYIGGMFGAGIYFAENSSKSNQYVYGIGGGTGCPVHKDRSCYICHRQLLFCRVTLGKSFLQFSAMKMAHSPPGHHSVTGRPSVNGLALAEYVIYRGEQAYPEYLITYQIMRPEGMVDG
Description: Inhibition of N-terminal his-tagged human TNKS2 expressed in Escherichia coli Rosette2 (DE3).

In experiment [4] the target is T2, Poly [ADP-ribose] polymerase tankyrase-1 (Homo sapiens, UniProt O95271).
T2 sequence (O95271 whole entry): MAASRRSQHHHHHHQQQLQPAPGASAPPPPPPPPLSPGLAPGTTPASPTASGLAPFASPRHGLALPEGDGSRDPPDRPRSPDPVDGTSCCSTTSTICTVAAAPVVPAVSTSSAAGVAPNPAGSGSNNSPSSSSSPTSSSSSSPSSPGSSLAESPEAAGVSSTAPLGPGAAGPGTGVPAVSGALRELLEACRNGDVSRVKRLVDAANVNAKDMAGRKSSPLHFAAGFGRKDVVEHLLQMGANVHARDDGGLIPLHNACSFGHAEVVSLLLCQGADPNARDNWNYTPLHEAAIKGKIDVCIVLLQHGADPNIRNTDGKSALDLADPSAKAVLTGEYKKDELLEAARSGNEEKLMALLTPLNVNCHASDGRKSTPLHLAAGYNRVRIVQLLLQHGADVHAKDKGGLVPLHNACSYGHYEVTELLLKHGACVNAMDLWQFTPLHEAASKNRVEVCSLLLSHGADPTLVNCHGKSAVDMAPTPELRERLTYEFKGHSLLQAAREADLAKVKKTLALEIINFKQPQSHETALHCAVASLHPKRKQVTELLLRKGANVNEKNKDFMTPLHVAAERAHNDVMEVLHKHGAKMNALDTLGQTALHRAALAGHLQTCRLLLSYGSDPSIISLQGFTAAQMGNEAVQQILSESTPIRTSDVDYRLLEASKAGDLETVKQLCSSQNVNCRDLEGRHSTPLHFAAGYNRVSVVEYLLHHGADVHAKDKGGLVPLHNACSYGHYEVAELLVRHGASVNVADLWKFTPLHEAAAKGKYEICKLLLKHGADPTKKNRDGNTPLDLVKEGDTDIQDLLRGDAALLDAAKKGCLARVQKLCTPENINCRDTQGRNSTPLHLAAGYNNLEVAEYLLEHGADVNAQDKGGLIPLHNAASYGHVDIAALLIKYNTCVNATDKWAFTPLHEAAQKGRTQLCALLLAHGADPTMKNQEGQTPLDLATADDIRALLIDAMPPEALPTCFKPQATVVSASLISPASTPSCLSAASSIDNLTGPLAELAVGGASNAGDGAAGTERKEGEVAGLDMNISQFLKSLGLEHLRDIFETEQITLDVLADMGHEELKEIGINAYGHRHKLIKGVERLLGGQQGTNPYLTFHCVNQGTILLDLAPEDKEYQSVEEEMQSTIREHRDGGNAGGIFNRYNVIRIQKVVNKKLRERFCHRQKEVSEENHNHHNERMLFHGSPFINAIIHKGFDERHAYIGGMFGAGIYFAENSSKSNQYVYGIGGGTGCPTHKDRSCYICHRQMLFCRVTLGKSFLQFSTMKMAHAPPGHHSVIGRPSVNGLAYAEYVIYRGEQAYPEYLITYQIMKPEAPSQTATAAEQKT
Description: Inhibition of N-terminal his-tagged human TNKS1 expressed in Escherichia coli Rosette2 (DE3).

On to `NC(=O)c1ccc(Oc2cccc(C(N)=O)c2)cc1`, for which the half-maximal inhibitory concentration (IC50) in experiment [1] stood at 1.7 µM; in experiment [2] it was 1.8 µM; in experiment [3], 6.5 µM; in experiment [4] it was 21 µM.
For `N#Cc1ccc(Oc2ccc(C(N)=O)cc2)cc1`, the concentration for half-maximal inhibition (IC50) in experiment [1] was 27 µM; in experiment [2], 1.7 µM; in experiment [3] it was above 100 µM; in experiment [4], above 100 µM.

Usually IC50 stands for the concentration at which inhibition is half-maximal.
